Assays:
Type in all cases: biochemical
CDK9/CyclinT1 [1] = molecular target: T1, CDK9/CyclinT1 (Homo sapiens, UniProt P50750); assay: CDK9/CyclinT1 ChEF Assay (AQT, Table C); set-up: Wild-type, full length CDK9 in complex with wildtype, CyclinT1 (1-259): Biortus Cat #BP480/792/691; purchased Biortus BP480/792/691; conditions: 10XKm
Method: 16 nL of 1000× compound in 100% DMSO is added to a 384-well low volume, black assay plate. 12 μL of 1.3×CDK9/CyclinT1 (Wild-type, full length CDK9 in complex with wildtype, CyclinT1 (1-259): Biortus Cat #BP480/792/691) diluted in assay buffer (54 mM Hepes, 0.012% Brij-35, 10 mM MgCl2, 0.55 mM EGTA, 1% Glycerol, 0.02% BSA, and 1.2 mM DTT) is added to the plates on top of the compound and pre-incubated for 30 minutes at room temperature. Following the incubation, 4 μL of 4×Sox-chromophore (CSox) labeled peptide substrate (AQT0449, AssayQuant) & ATP diluted in assay buffer is added to the plate to initiate the reaction. The assay is incubated at room temperature for 180 min after initiation. The CSox peptide substrate is phosphorylated by CDK9/T1 upon ATP hydrolysis.
(§1) The fluorescent intensity measurement of the assay plate is read on a microplate reader once the assay is initiated and again at the completion of the assay. Phosphorylation of the CSox-based peptide substrate sensor results in an immediate increase in fluorescence. These raw fluorescence intensity values are normalized to calculate percent inhibition, which are fit to a four-parameter logistic curve and IC50 values are calculated. IC50 values are converted to Ki using substrate, KM^app values, and the Cheng-Prusoff equation.
Target sequence in this assay (P50750 whole entry): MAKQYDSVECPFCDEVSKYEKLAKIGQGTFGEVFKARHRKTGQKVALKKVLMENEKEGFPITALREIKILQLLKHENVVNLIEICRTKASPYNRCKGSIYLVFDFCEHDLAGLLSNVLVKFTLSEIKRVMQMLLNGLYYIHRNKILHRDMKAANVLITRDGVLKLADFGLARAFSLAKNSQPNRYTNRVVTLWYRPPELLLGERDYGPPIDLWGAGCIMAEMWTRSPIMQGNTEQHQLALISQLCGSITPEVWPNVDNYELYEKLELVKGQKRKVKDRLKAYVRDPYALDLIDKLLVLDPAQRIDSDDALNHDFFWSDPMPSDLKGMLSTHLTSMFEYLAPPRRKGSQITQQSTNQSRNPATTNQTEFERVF
Target sequence in this assay (O60563 1-259 partner limits assumed): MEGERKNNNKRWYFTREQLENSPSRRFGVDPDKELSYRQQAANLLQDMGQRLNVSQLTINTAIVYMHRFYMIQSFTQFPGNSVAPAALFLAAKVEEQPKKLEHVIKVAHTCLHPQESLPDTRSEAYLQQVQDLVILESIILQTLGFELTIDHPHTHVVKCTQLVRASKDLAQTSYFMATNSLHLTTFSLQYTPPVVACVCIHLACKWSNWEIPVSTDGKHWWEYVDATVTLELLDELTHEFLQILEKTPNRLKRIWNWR

CDK1/CyclinB1 = molecular target: T2, CDK1/CyclinB1 (Homo sapiens, UniProt P06493); assay: CDK1/CyclinB1 ChEF Assay (AQT, Table C); conditions: 10xKm, read-out: CDK1/CCNB1 AQT AQT10xKm Ki: Average Ki
T2 construct: Wild-type, full length CDK1 in complex with wildtype, full length CyclinB1: Carna Cat #04-102; purchased Carna 04-102
T2 sequence (P06493 whole entry): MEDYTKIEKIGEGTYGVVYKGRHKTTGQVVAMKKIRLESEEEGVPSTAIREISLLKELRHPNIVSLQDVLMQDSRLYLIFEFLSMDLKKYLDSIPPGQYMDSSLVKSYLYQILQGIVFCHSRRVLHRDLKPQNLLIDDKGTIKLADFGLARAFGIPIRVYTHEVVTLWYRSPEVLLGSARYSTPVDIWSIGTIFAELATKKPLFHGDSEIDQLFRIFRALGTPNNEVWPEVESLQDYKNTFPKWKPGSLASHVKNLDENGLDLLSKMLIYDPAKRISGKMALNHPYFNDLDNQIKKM
T2 sequence (P14635 whole entry partner): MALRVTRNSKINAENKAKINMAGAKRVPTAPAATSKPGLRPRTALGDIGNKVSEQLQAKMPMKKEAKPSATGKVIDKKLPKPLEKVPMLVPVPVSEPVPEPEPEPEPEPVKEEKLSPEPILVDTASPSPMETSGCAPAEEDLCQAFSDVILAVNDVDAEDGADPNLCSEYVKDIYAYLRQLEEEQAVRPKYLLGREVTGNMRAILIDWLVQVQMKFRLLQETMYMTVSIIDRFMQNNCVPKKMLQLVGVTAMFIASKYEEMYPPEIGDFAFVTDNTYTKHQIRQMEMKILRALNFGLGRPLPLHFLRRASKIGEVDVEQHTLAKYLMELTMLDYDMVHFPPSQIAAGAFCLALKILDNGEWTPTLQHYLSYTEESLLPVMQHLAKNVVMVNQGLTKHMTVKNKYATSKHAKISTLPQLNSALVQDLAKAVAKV
Method: 16 nL of 1000× compound in 100% DMSO is added to a 384-well low volume, black assay plate. 12 μL of 1.3×CDK1/CyclinB1 (Wild-type, full length CDK1 in complex with wildtype, full length CyclinB1: Carna Cat #04-102) diluted in assay buffer (54 mM Hepes, 0.012% Brij-35, 10 mM MgCl2, 0.55 mM EGTA, 1% Glycerol, 0.02% BSA, and 1.2 mM DTT) is added to the plates on top of the compound and pre-incubated for 30 minutes at room temperature. Following the incubation, 4 uL of 4×Sox-chromophore (CSox) labeled peptide substrate (AQT0297, AssayQuant) & ATP diluted in assay buffer is added to the plate to initiate the reaction. The assay is incubated at room temperature for 120 min after initiation. The CSox peptide substrate is phosphorylated by CDK1/B1 upon ATP hydrolysis.
as §1

CDK9/CyclinT1 [2] = molecular target: T1, CDK9/CyclinT1; assay: CDK9/CyclinT1 ChEF Assay (Table A); set-up: Wild-type, full length CDK9 in complex with wildtype, full length CyclinT1: Invitrogen Cat #PV4131; purchased Invitrogen PV4131; conditions: 10xKm, read-out: CDK9/CCNT1 ChEF 10xKm Ki: Average Ki
Method: 500 nL of 50× compound in 100% DMSO is added to a 384-well low volume, white assay plate. 19.5 μL of 1.3×CDK9/CyclinT1 (Wild-type, full length CDK9 in complex with wildtype, full length CyclinT1: Invitrogen Cat #PV4131) diluted in assay buffer (50 mM Hepes, 0.01% Brij-35, 10 mM MgCl2, 0.5 mM EGTA, 1% Glycerol, and 1.2 mM DTT) is added to the plates on top of the compound and pre-incubated for 30 minutes at room temperature. Following the incubation, 5 μL of 5×Sox-chromophore (CSox) labeled peptide substrate (AQT0449, AssayQuant) & ATP diluted in assay buffer is added to the plate to initiate the reaction. The assay is incubated at room temperature for 120 min after initiation. The CSox peptide substrate is phosphorylated by CDK9/T1 upon ATP hydrolysis.
as §1, with “assay plate for all assays described above is read” for “assay plate is read”
Target sequence in this assay (P50750 whole entry): as the sequence (P50750 whole entry) above
Target sequence in this assay (O60563 whole entry partner): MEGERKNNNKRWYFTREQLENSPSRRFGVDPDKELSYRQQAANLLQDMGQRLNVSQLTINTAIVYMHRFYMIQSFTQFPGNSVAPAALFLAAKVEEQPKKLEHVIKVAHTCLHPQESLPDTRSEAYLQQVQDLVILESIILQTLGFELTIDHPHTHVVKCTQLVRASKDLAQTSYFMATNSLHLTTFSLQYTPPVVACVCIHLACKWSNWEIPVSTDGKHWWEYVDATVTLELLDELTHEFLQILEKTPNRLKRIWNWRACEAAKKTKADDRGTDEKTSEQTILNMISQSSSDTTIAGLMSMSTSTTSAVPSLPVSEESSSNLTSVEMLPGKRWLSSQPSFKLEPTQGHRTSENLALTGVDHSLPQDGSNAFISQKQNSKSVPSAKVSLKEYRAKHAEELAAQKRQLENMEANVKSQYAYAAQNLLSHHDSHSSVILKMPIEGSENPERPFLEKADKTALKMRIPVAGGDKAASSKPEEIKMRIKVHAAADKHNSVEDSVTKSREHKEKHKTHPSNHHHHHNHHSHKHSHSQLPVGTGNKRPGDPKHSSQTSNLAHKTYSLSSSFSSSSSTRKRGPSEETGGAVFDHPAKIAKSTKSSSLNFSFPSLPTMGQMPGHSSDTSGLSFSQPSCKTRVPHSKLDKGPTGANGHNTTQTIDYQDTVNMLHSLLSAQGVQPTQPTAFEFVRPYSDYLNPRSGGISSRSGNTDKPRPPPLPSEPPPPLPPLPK

CDK2/CyclinA2 = molecular target: T3, CDK2/CyclinA2 (Homo sapiens, UniProt P24941); assay: CDK2/CyclinA2 ChEF Assay (Table A); conditions: for Ki: 10xKm, read-out: CDK2/CCNA2 ChEF 10xKm Ki: Average Ki
T3 construct: Wild-type, full length CDK2 in complex with wildtype, full length CyclinA2: Carna Cat #04-103; purchased Carna 04-103
Method: 500 nL of 50× compound in 100% DMSO is added to a 384-well low volume, white assay plate. 19.5 μL of 1.3×CDK2/CyclinA2 (Wild-type, full length CDK2 in complex with wildtype, full length CyclinA2: Carna Cat #04-103 diluted in assay buffer (50 mM Hepes, 0.01% Brij-35, 10 mM MgCl2, 0.5 mM EGTA, 1% Glycerol, and 1.2 mM DTT) is added to the plates on top of the compound and pre-incubated for 30 minutes at room temperature. Following the incubation, 5 μL of 5×Sox-chromophore (CSox) labeled peptide substrate (AQT0255, AssayQuant) & ATP diluted in assay buffer is added to the plate to initiate the reaction. The assay is incubated at room temperature for 45 min after initiation. The CSox peptide substrate is phosphorylated by CDK2/A2 upon ATP hydrolysis.
as §1, with “assay plate for all assays described above is read” for “assay plate is read”

NS(=O)(=O)c1ccc2cc1OCCCCCNC(=O)O[C@@H]1CC[C@@H](C1)c1cnc(nc1)N2 (stereo in doubt) [Compound 105, rel-(2S,5R)-7-oxo-6,14-dioxa-8,20,22,25-tetraazatetracyclo[19.2.2.1^{2,5}.1^{15,19}]heptacosa-1(23),15,17,19(26),21,24-hexaene-16-sulfonamide]
Ki (CDK9/CyclinT1 [1]): 25 to 100 nM
Ki (CDK1/CyclinB1): 1 to 25 nM

O=C1NCCOCCNS(=O)(=O)c2ccc(c(F)c2)Nc2cc([nH]n2)[C@H]2CC[C@H](C2)O1 [Compound 89, (1^1S,1^3R,Z)-4^2-Fluoro-2^1H-9,14-dioxa-5-thia-3,6,12-triaza-2(5,3)-pyrazola-4(1,4)-benzena-1(1,3)-cyclopentanacyclotetradecaphan-13-one 5,5-dioxide]
Ki (CDK9/CyclinT1 [2]): ≥ 100 nM
Ki (CDK2/CyclinA2): 1 to 25 nM
CDK2/CCNA2 ChEF 10xKm Ki: CDK2/A2 Selectivity over CDK9/T1 (CDK2/CyclinA2): A (A>10)

O=C1NCCCCCNS(=O)(=O)c2ccc(c(F)c2)Nc2cc([nH]n2)[C@H]2CC[C@H](C2)O1 [Compound 90, (1^1S,1^3R,Z)-4^2-fluoro-2^1H-14-oxa-5-thia-3,6,12-triaza-2(5,3)-pyrazola-4(1,4)-benzena-1(1,3)-cyclopentanacyclotetradecaphan-13-one 5,5-dioxide]
Ki (CDK9/CyclinT1 [2]): ≥ 100 nM
Ki (CDK2/CyclinA2): 1 to 25 nM
CDK2/CCNA2 ChEF 10xKm Ki: CDK2/A2 Selectivity over CDK9/T1 (CDK2/CyclinA2): A (A>10)

O=C1NCCCCCCNS(=O)(=O)c2ccc(c(F)c2)Nc2cc([nH]n2)[C@H]2CC[C@H](C2)O1 [Compound 91, (1^1S,1^3R,Z)-4^2-fluoro-2^1H-15-oxa-5-thia-3,6,13-triaza-2(5,3)-pyrazola-4(1,4)-benzena-1(1,3)-cyclopentanacyclopentadecaphan-14-one 5,5-dioxide]
Ki (CDK9/CyclinT1 [1]): 25 to 100 nM
Ki (CDK1/CyclinB1): 1 to 25 nM
Ki (CDK9/CyclinT1 [2]): ≥ 100 nM
Ki (CDK2/CyclinA2): < 1 nM
CDK2/CCNA2 ChEF 10xKm Ki: CDK2/A2 Selectivity over CDK9/T1 (CDK2/CyclinA2): A (A>10)

O=C1NCCCCCCCNS(=O)(=O)c2ccc(c(F)c2)Nc2cc([nH]n2)[C@H]2CC[C@H](C2)O1 [Compound 92]
Ki (CDK9/CyclinT1 [2]): ≥ 100 nM
Ki (CDK2/CyclinA2): < 1 nM
CDK2/CCNA2 ChEF 10xKm Ki: CDK2/A2 Selectivity over CDK9/T1 (CDK2/CyclinA2): A (A>10)

O=C1NCCCn2cc(cn2)S(=O)(=O)N2CCC(CC2)Nc2cc([nH]n2)[C@H]2CC[C@H](C2)O1 [Compound 95, (1^1S, 1^3R,2^4Z,6^4E)-2^1H,6^1H-12-oxa-5-thia-3,10-diaza-4(4,1)-piperidina-2(5,3),6(4,1)-dipyrazola-1(1,3)-cyclopentanacyclododecaphan-11-one 5,5-dioxide]
Ki (CDK9/CyclinT1 [2]): ≥ 100 nM
Ki (CDK2/CyclinA2): ≥ 100 nM
CDK2/CCNA2 ChEF 10xKm Ki: CDK2/A2 Selectivity over CDK9/T1 (CDK2/CyclinA2): C (C<5)

O=C1NCCCCCn2cc(cn2)S(=O)(=O)N2CCC(CC2)Nc2cc([nH]n2)[C@H]2CC[C@H](C2)O1 [Compound 96, (1^1S,1^3R,2^4Z,6^4E)-2^1H,6^1H-14-oxa-5-thia-3,12-diaza-4(4,1)-piperidina-2(5,3),6(4,1)-dipyrazola-1(1,3)-cyclopentanacyclotetradecaphan-13-one 5,5-dioxide]
Ki (CDK9/CyclinT1 [2]): 25 to 100 nM
Ki (CDK2/CyclinA2): 1 to 25 nM
CDK2/CCNA2 ChEF 10xKm Ki: CDK2/A2 Selectivity over CDK9/T1 (CDK2/CyclinA2): A (A>10)

O=C1NCCCCCCn2cc(cn2)S(=O)(=O)N2CCC(CC2)Nc2cc([nH]n2)[C@H]2CC[C@H](C2)O1 [Compound 97, (1^1S,1^3R,2^4Z,6^4E)-2^1H,6^1H-15-oxa-5-thia-3,13-diaza-4(4,1)-piperidina-2(5,3),6(4,1)-dipyrazola-1(1,3)-cyclopentanacyclopentadecaphan-14-one 5,5-dioxide]
Ki (CDK9/CyclinT1 [1]): 25 to 100 nM
Ki (CDK1/CyclinB1): 1 to 25 nM
Ki (CDK9/CyclinT1 [2]): ≥ 100 nM
Ki (CDK2/CyclinA2): < 1 nM
CDK2/CCNA2 ChEF 10xKm Ki: CDK2/A2 Selectivity over CDK9/T1 (CDK2/CyclinA2): A (A>10)

O=C1NCCCNS(=O)(=O)c2ccc(c(F)c2)Nc2cc([nH]n2)[C@H]2CC[C@H](C2)O1 [Compound 98, (1^1S, 1^3R,Z)-4^2-fluoro-2^1H-12-oxa-5-thia-3,6, 10-triaza-2(5,3)-pyrazola-4(1,4)-benzena-1(1,3)-cyclopentanacyclododecaphan-11-one 5,5-dioxide]
Ki (CDK9/CyclinT1 [2]): 25 to 100 nM
Ki (CDK2/CyclinA2): 25 to 100 nM
CDK2/CCNA2 ChEF 10xKm Ki: CDK2/A2 Selectivity over CDK9/T1 (CDK2/CyclinA2): B (5≤B<10)

O=C1NCCCCNS(=O)(=O)c2ccc(c(F)c2)Nc2cc([nH]n2)[C@H]2CC[C@H](C2)O1 [Compound 99, (1^1S, 1^3R,Z)-4^2-fluoro-2^1H-13-oxa-5-thia-3,6,11-triaza-2(5,3)-pyrazola-4(1,4)-benzena-1(1,3)-cyclopentanacyclotridecaphan-12-one 5,5-dioxide]
Ki (CDK9/CyclinT1 [2]): ≥ 100 nM
Ki (CDK2/CyclinA2): < 1 nM
CDK2/CCNA2 ChEF 10xKm Ki: CDK2/A2 Selectivity over CDK9/T1 (CDK2/CyclinA2): A (A>10)

CN1CCNC(=O)O[C@@H]2CC[C@@H](C2)c2cc(n[nH]2)Nc2ccc(cc2F)S(=O)(=O)NCC1 [Compound 100, (1^1S, 1^3R,Z)-4^2-fluoro-9-methyl-2^1H-14-oxa-5-thia-3,6,9,12-tetraaza-2(5,3)-pyrazola-4(1,4)-benzena-1(1,3)-cyclopentanacyclotetradecaphan-13-one 5,5-dioxide]
Ki (CDK9/CyclinT1 [2]): ≥ 100 nM
Ki (CDK2/CyclinA2): 1 to 25 nM
CDK2/CCNA2 ChEF 10xKm Ki: CDK2/A2 Selectivity over CDK9/T1 (CDK2/CyclinA2): A (A>10)

CC1(C)CCCNS(=O)(=O)c2ccc(c(F)c2)Nc2cc([nH]n2)[C@H]2CC[C@H](C2)OC(=O)N1 [Compound 101, (1^1S,1^3R,Z)-4^2-fluoro-10,10-dimethyl-2^1H-13-oxa-5-thia-3,6,11-triaza-2(5,3)-pyrazola-4(1,4)-benzena-1(1,3)-cyclopentanacyclotridecaphan-12-one 5,5-dioxide]
Ki (CDK9/CyclinT1 [2]): 25 to 100 nM
Ki (CDK2/CyclinA2): 1 to 25 nM
CDK2/CCNA2 ChEF 10xKm Ki: CDK2/A2 Selectivity over CDK9/T1 (CDK2/CyclinA2): A (A>10)

O=C1NCC=CCNS(=O)(=O)c2ccc(c(F)c2)Nc2cc([nH]n2)[C@H]2CC[C@H](C2)O1 [Compound 102, (1^1S,1^3R,2^4Z)-4^2-fluoro-2^1H-13-oxa-5-thia-3,6,11-triaza-2(5,3)-pyrazola-4(1,4)-benzena-1(1,3)-cyclopentanacyclotridecaphan-8-en-12-one 5,5-dioxide]
Ki (CDK9/CyclinT1 [2]): ≥ 100 nM
Ki (CDK2/CyclinA2): < 1 nM
CDK2/CCNA2 ChEF 10xKm Ki: CDK2/A2 Selectivity over CDK9/T1 (CDK2/CyclinA2): A (A>10)

— patent publication US20260200943A1, “COMPOUNDS FOR TREATING CANCER” (Genesis Therapeutics, Inc., priority 2022, published 2026)
